Measured values from ChEMBL document CHEMBL4024701, “Optimization and Structure-Activity Relationships of Phosphinic Pseudotripeptide Inhibitors of Aminopeptidases That Generate Antigenic Peptides” (J Med Chem, 2016).
pIC50: −log10 of the molar value. Blank lines part the entries; values can stand above or below the molecule they belong to.

Columns and labels:
[1] = Effect on cross-presentation activity of IRAP-/- knockdown C57Bl/6 mouse CD8alpha-positive dendritic cells assessed as IL2 level in CD8+ T-cells isolated from lymph nodes of Rag-1-/- C57Bl/6 OT-I mouse at 3.3 uM pre-incubated for 60 mins followed by addition of ovalbumin measured after 6 hrs by sandwich ELISA assay; conditions: cd8alpha-positive dendritic cell
[2] = (§1) Effect on cross-presentation activity of IRAP-/- knockdown C57Bl/6 mouse CD8alpha-positive T cells assessed as IL2 level in CD8+ T-cells isolated from lymph nodes of Rag-1-/- C57Bl/6 OT-I mouse at 3 to 1000 nmol/L pre-incubated for 60 mins followed by addition of ovalbumin measured after 6 hrs by sandwich ELISA assay; type: ADME, cell-based
[3] = target: T1, Leucyl-cystinyl aminopeptidase (Mus musculus) (UniProt Q8C129); assay: (§2) Inhibition of IRAP in C57Bl/6 mouse CD8 alpha-positive cells assessed as reduction of IRAP-dependent cross-presentation activity by measuring IL2 level in CD8+ T-cells isolated from lymph nodes of Rag-1-/- C57Bl/6 OT-I mouse at 3 to 3333 nM pre-incubated for 60 mins followed by addition of ovalbumin measured after 6 hrs by sandwich ELISA
T1 sequence (whole entry): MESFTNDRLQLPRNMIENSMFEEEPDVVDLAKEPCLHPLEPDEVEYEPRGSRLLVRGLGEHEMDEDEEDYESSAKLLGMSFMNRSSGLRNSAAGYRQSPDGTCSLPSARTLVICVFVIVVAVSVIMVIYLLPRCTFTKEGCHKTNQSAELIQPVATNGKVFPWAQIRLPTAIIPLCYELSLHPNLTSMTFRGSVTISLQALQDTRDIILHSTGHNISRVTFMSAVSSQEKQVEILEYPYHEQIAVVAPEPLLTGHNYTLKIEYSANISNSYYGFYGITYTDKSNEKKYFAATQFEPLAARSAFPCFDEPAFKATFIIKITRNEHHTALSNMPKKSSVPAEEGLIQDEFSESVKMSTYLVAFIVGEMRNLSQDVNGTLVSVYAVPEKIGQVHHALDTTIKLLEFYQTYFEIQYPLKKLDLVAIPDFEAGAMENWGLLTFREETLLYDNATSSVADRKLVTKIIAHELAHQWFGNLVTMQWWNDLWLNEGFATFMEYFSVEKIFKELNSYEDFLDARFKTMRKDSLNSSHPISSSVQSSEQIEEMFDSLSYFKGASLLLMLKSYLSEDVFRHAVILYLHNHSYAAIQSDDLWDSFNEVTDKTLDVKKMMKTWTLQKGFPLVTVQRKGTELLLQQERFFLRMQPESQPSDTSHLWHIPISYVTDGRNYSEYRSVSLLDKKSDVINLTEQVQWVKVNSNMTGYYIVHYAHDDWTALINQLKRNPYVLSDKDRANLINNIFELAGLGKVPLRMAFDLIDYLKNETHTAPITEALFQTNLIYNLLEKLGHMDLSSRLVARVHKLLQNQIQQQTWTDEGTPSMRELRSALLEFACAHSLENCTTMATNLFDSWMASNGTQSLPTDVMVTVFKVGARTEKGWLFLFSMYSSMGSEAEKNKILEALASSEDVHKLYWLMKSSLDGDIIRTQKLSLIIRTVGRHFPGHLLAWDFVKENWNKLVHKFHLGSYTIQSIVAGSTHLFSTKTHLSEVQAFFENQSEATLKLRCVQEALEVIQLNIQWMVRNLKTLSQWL

[4] = as §1, with “CD11b-positive dendritic” for “CD8alpha-positive T”; type: ADME, cell-based; conditions: cd11b-positive dendritic cell
[5] = as §1, with “CD11b-positive dendritic” for “CD8alpha-positive T”, “3.3 uM” for “3 to 1000 nmol/L”; type: ADME, cell-based; conditions: cd11b-positive dendritic cell
[6] = target: T1, Leucyl-cystinyl aminopeptidase (Mus musculus); assay: as §2, with “CD11b-positive dendritic” for “CD8 alpha-positive”
[7] = target: Endoplasmic reticulum aminopeptidase 1 (Homo sapiens, UniProt Q9NZ08); assay: Inhibition of ERAP1 (unknown origin) expressed in Hi5 cells by in vitro fluorimetric assay
Sequence of Endoplasmic reticulum aminopeptidase 1 (Q9NZ08 whole entry): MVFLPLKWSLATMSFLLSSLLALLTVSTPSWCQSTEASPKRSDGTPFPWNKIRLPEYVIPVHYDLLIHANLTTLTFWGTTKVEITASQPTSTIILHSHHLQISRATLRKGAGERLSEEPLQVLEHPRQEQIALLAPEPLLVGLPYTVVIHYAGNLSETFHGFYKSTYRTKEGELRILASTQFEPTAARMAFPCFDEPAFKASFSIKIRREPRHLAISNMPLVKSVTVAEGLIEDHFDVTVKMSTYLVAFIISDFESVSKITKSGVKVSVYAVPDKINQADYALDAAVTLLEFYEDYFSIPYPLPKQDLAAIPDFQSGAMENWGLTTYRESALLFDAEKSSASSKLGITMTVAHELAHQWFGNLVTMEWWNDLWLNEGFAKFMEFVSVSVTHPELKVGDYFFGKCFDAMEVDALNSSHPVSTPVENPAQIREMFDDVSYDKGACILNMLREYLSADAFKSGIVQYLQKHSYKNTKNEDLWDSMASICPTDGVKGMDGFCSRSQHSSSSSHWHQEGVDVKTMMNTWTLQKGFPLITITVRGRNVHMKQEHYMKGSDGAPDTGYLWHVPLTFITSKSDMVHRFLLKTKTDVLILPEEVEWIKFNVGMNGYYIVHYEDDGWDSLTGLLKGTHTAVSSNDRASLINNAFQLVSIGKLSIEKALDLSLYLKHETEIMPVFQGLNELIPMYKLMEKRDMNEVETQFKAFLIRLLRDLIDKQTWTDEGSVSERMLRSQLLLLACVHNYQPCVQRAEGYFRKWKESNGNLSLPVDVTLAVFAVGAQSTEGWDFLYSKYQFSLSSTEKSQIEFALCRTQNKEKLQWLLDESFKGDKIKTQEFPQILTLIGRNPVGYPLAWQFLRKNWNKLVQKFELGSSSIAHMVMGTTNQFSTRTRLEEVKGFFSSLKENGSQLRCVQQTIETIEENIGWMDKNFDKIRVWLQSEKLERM

[8] = target: Leucyl-cystinyl aminopeptidase (Homo sapiens, UniProt Q9UIQ6); assay: Inhibition of IRAP (unknown origin) expressed in HEK 293S GnTI(-) cells by in vitro fluorimetric assay; type: cell-based
Sequence of Leucyl-cystinyl aminopeptidase (Q9UIQ6 whole entry): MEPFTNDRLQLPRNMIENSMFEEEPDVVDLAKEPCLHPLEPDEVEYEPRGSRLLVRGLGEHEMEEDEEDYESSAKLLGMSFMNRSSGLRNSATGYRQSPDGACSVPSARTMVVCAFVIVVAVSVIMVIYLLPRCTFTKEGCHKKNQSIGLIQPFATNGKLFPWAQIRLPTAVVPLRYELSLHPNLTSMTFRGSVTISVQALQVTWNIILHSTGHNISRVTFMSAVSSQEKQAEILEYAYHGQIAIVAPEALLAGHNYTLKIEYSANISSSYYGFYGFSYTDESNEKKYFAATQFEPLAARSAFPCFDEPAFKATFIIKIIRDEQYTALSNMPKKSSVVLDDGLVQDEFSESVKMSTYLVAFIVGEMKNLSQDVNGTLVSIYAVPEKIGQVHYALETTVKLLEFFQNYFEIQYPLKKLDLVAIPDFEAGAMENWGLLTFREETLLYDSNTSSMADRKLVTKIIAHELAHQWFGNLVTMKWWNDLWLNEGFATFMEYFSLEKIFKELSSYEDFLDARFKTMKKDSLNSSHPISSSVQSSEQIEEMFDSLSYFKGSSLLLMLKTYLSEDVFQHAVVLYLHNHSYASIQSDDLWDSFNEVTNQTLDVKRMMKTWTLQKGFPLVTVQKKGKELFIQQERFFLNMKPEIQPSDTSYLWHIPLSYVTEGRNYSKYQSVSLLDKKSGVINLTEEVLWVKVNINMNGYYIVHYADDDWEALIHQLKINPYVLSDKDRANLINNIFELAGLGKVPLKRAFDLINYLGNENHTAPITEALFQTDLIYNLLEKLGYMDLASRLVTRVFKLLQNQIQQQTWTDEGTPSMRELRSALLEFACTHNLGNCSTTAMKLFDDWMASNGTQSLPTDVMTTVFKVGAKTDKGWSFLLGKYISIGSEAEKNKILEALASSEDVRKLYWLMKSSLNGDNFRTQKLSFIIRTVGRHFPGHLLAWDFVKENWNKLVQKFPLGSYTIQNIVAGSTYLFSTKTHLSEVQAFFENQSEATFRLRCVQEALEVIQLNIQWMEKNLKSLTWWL

inhibition [3]: Dose-dependent effect
inhibition [6]: Dose-dependent effect
Compound: NC(=O)[C@H](Cc1ccccc1)NC(=O)[C@H](CC(c1ccccc1)c1ccccc1)CP(=O)(O)[C@@H](N)CCc1ccccc1
Activity [1]: Toxic
Activity [2]: Non-Toxic
Activity [4]: Non-Toxic
Activity [5]: Toxic

pIC50 [7]: < 4.00
Compound: NC(=O)[C@H](Cc1ccccc1)NC(=O)[C@@H](Cc1cc(-c2ccccc2)cc(-c2ccccc2)c1)CP(=O)(O)[C@@H](N)CCc1ccccc1

pIC50 [8]: 8.70
Compound: C#CC[C@H](CP(=O)(O)[C@@H](N)CCc1ccccc1)C(=O)N[C@@H](Cc1ccccc1)C(N)=O

pIC50 [7]: < 4.46
Compound: NC(=O)[C@H](Cc1ccccc1)NC(=O)[C@H](Cc1cc(-c2ccccc2)cc(-c2ccccc2)c1)CP(=O)(O)[C@@H](N)CCc1ccccc1
